Results reported in patent US20150126545A1, “COMPOSITIONS CONTAINING KINASE INHIBITORS” (AbbVie Inc., priority 2011, published 2015).
Values after ≈ are worked out from the molar mass of the structure shown.

How the values were obtained:
[1] = Solubility of free base in PEG-300/Cremophor EL/Ethanol vehicles; format: physicochemical
Text: Solubility of N-(4-{4-amino-7-[1-(2-hydroxyethyl)-1H-pyrazol-4-yl]thieno[3,2-c]pyridin-3-yl}phenyl)-N′-(3-fluorophenyl)urea Free Base in PEG-300/Cremophor EL/Ethanol Vehicles

[2] = Solubility of free base in various media; format: physicochemical
Text: Solubility of N-(4-{4-amino-7-[1-(2-hydroxyethyl)-1H-pyrazol-4-yl]thieno[3,2-c]pyridin-3-yl}phenyl)-N′-(3-fluorophenyl)urea Free Base in Various Media

[3] = Pharmacokinetics of IV formulation in humans (Phase I, advanced solid tumors); format: in vivo; conditions: human, plasma, IV infusion approx. 2 hour
Text: IV formulations of the invention were used in an open-label Phase I human study evaluating the safety and pharmacokinetics of N-(4-{4-amino-7-[1-(2-hydroxyethyl)-1H-pyrazol-4-yl]thieno[3,2-c]pyridin-3-yl}phenyl)-N′-(3-fluorophenyl)urea as monotherapy in subjects with advanced solid tumors, i.e., mixture of polyethylene glycol 300, polyoxyl 35 castor oil, and ethanol in a ratio of 45:45:10% w/w, and N-(4-{4-amino-7-[1-(2-hydroxyethyl)-1H-pyrazol-4-yl]thieno[3,2-c]pyridin-3-yl}phenyl)-N′-(3-fluorophenyl)urea, wherein the N-(4-{4-amino-7-[1-(2-hydroxyethyl)-1H-pyrazol-4-yl]thieno[3,2-c]pyridin-3-yl}phenyl)-N′-(3-fluorophenyl)urea is present in a concentration of about 6 mg/mL.
The number of subjects that entered the studies and completed at least a portion of the studies are noted. Subjects entered the study and were assigned to receive one of the following doses: 8 mg, 16 mg, or 32 mg.
Doses were administered on Day 1 and Day 15 of each 28 day cycle with an approximately 2 hour infusion. On Day 1 and Day 15, plasma samples are collected at time 0 (prior to infusion), 1 h 55 min (just before the end of the infusion), and at 0.5, 1, 2, 4, 6, 8, 10, 24 hours post the end of infusion. The plasma concentrations of N-(4-{4-amino-7-[1-(2-hydroxyethyl)-1H-pyrazol-4-yl]thieno[3,2-c]pyridin-3-yl}phenyl)-N′-(3-fluorophenyl)urea were determined, and the values for the pharmacokinetic parameters were calculated and shown in Table 7.

[4] = 8 mg, 8 mg, Study Day 1, mean ± SD, N 4
[5] = 8 mg, 8 mg, Study Day 15, mean ± SD, N 4
[6] = 16 mg, 16 mg, Study Day 15, N 1
[7] = 32 mg, 32 mg, Study Day 1, mean, N 2
[8] = 32 mg, 32 mg, Study Day 15, mean, N 2

A solubility ([1]; PEG-300/Cremophor EL/Ethanol 42.5/42.5/15, organic solvent or mixture, PEG-300/Cremophor EL/Ethanol ratio 42.5/42.5/15, 5° C., read-out: Solubility (mg/mL) at 5° C.) of 11.9 mg/mL, a solubility ([1]; PEG-300/Cremophor EL/Ethanol 42.5/42.5/15, organic solvent or mixture, PEG-300/Cremophor EL/Ethanol ratio 42.5/42.5/15, RT, read-out: Solubility (mg/mL) at RT) of 10 mg/mL and a solubility ([1]; PEG-300/Cremophor EL/Ethanol 45/45/10, organic solvent or mixture, PEG-300/Cremophor EL/Ethanol ratio 45/45/10, 5° C., read-out: Solubility (mg/mL) at 5° C.) of 14.1 mg/mL were found for Nc1ncc(-c2cnn(CCO)c2)c2scc(-c3ccc(NC(=O)Nc4cccc(F)c4)cc3)c12 [API, N-(4-{4-amino-7-[1-(2-hydroxyethyl)-1H-pyrazol-4-yl]thieno[3,2-c]pyridin-3-yl}phenyl)-N′-(3-fluorophenyl)urea] in this work. The solubility ([1]; PEG-300/Cremophor EL/Ethanol 45/45/10, organic solvent or mixture, PEG-300/Cremophor EL/Ethanol ratio 45/45/10, RT, read-out: Solubility (mg/mL) at RT) was 11.6 mg/mL, the solubility ([1]; PEG-300/Cremophor EL/Ethanol 47.5/47.5/5, organic solvent or mixture, PEG-300/Cremophor EL/Ethanol ratio 47.5/47.5/5, 5° C., read-out: Solubility (mg/mL) at 5° C.) was 16.4 mg/mL and the solubility ([1]; PEG-300/Cremophor EL/Ethanol 47.5/47.5/5, organic solvent or mixture, PEG-300/Cremophor EL/Ethanol ratio 47.5/47.5/5, RT, read-out: Solubility (mg/mL) at RT) was 13 mg/mL. For the same compound, the solubility ([2]; 10% Cremophor EL in water, aqueous with cosolvent or surfactant or cyclodextrin, read-out: Solubility) was 106 µg/mL (≈ 217 µM), the solubility ([2]; 10% Polysorbate 80 in water, aqueous with cosolvent or surfactant or cyclodextrin, read-out: Solubility) was 146 µg/mL (≈ 299 µM) and the solubility ([2]; 10% Solutol HS in water, aqueous with cosolvent or surfactant or cyclodextrin, read-out: Solubility) was 152 µg/mL (≈ 311 µM). It also gave a solubility ([2]; Cremophor EL, organic solvent or mixture, Cremphor EL, read-out: Solubility) of 7100 µg/mL (≈ 14500 µM), a solubility ([2]; DMA, organic solvent or mixture, read-out: Solubility) of 35000 to 50000 µg/mL (≈ 71600 to 102000 µM) and a solubility ([2]; Ethanol, organic solvent or mixture, read-out: Solubility) of 130 µg/mL (≈ 266 µM). For the same compound, the solubility ([2]; PEG 300, organic solvent or mixture, read-out: Solubility) was 20000 µg/mL (≈ 40900 µM), the solubility ([2]; PEG 400, organic solvent or mixture, read-out: Solubility) was 20900 µg/mL (≈ 42800 µM) and the solubility ([2]; Polysorbate 80, organic solvent or mixture, read-out: Solubility) was 2500 µg/mL (≈ 5120 µM). For the same compound, the solubility ([2]; Propylene Glycol, organic solvent or mixture, read-out: Solubility) was 1200 µg/mL (≈ 2460 µM), the solubility ([2]; Water (across physiological pH range), read-out: Solubility) was less than 0.03 µg/mL and the solubility ([2]; water, pH 7.4, aqueous buffer, read-out: solubility in water) was less than 0.03 µg/mL. For the same compound, the half-life ([3]; 8 mg, 8 mg, Study Day 1, harmonic mean ± pseudo SD, N 4) was 10.7 ± 8.3 h, the AUC(0-inf) [3, 4] was 2960 ± 1540 ng·h/mL and the Cmax [3, 4] was 235 ± 82.1 ng/mL. For the same compound, the Tmax [3, 4] was 1.9 h, the half-life ([3]; 8 mg, 8 mg, Study Day 15, harmonic mean ± pseudo SD, N 4) was 14.1 ± 7.4 h and the AUC(0-inf) [3, 5] was 2940 ± 1630 ng·h/mL. The Cmax [3, 5] was 246 ± 107 ng/mL, the Tmax [3, 5] was 1.9 h and the AUC(0-inf) ([3]; 16 mg, 16 mg, Study Day 1, N 1) was 2350 ng·h/mL. For the same compound, the Cmax ([3]; 16 mg, 16 mg, Study Day 1, N 1) was 366 ng/mL, the Tmax ([3]; 16 mg, 16 mg, Study Day 1, N 1) was 2.5 h and the half-life ([3]; 16 mg, 16 mg, Study Day 1, N 1) was 9.8 h. For the same compound, the AUC(0-inf) [3, 6] was 3690 ng·h/mL, the Cmax [3, 6] was 736 ng/mL and the Tmax [3, 6] was 1.9 h. For the same compound, the half-life [3, 6] was 12.6 h, the half-life ([3]; 32 mg, 32 mg, Study Day 1, harmonic mean, N 2) was 8.9 h and the AUC(0-inf) [3, 7] was 8730 ng·h/mL. For the same compound, the Cmax [3, 7] was 1310 ng/mL, the Tmax [3, 7] was 1.9 h and the half-life ([3]; 32 mg, 32 mg, Study Day 15, harmonic mean, N 2) was 11.3 h. For the same compound, the AUC(0-inf) [3, 8] was 8620 ng·h/mL, the Cmax [3, 8] was 1370 ng/mL and the Tmax [3, 8] was 2.2 h.
